≈ marks a conversion by molar mass, not a printed value. Where a name gives a salt, the structure may show the parent alone. Read-outs that look alike come from different tables or passages of the source.
Legend:
Assay in all cases: MIC, dilution in liquid medium
Assay type in all cases: cell-based
[1] = test system: Proteus mirabilis (indol-) A 235
Protocol: (§1) The method used was a dilution of a liquid medium where a series of tubes received the same quantity of a sterile nutritive media and increasing doses of the test compounds were placed therein. Then each tube was seeded with a bacterial strain and was incubated for 24 to 48 hours at 37° C. in an oven. The increasing inhibition was determined by transillulumination to determine the minimum inhibiting concentration (MIC in μg/ml) and the results are reported in the following Tables.

[2] = test system: Staphylococcus aureus ATCC 6 538 Pen Sensitive
Protocol: as §1

[3] = test system: Klebsiella pneumoniae Exp. 52 145
Protocol: as §1

[4] = test system: Salmonella typhimurium 420; details: Salmonella enterica
Protocol: as §1

[5] = test system: Staphylococcus aureus exp.n°54 146
Protocol: as §1

[6] = test system: Escherichia Coli Resistant Tetracycline ATCC 11 303
Protocol: as §1

[7] = test system: Serratia Resistant Gentamycine 2 532
Protocol: as §1

[8] = test system: Escherichia Coli sensitive Tetracycline ATCC 9 637
Protocol: as §1

[9] = test system: Escherichia Coli Exp. TO26 B6
Protocol: as §1

[10] = test system: Escherichia Coli Resistant Gentamycine, Tobramycine R 55 123 D
Protocol: as §1

Enterobacter cloacae 681 = details: read-out: MIC
Protocol: as §1

[11] = test system: Bacillus subtilis ATCC 6 633
Protocol: as §1

[12] = test system: Staphylococcus aureus UC 1 128 Pen-resistant
Protocol: as §1

[13] = test system: Klebsiella pneumoniae 2 536 Resistant Gentamycine
Protocol: as §1

[14] = test system: Streptococcus pyogenes A 561
Protocol: as §1

Providencia Du 48 = details: read-out: MIC
Protocol: as §1

## Cc1nnc(SCC2=C(C(=O)O)N3C(=O)C(NC(=O)/C(=N\OCCSC(=N)N)c4csc(N)n4)C3SC2)s1 (stereo not drawn) [Example 6, Internal salt of syn isomer of 3-[(2-methyl-1,3,4-thiadiazol-5-yl)-thiomethyl]-7-[2-(2-amino-4-thiazolyl)-2-(2-aminoiminomethylthioethoxyimino)-acetamido]-ceph-3-eme-4-carboxylic acid]
[1]; 24 h
  MIC: 1 µg/mL
[1]; 48 h
  MIC: 1 µg/mL
[2]; ATCC6, 24 h, read-out: MIC
  MIC: 1 µg/mL
[2]; ATCC6, 48 h
  MIC: 2 µg/mL
[3]; EXP.52145, 24 h, read-out: MIC
  MIC: 1 µg/mL
[3]; EXP.52145, 48 h, read-out: MIC
  MIC: 1 µg/mL
[4]; 24 h
  MIC: 2 µg/mL
[4]; 48 h, read-out: MIC
  MIC: 3 µg/mL
[5]; 24 h
  MIC: 2 µg/mL
[5]; 48 h
  MIC: 2 µg/mL
[6]; ATCC11, 24 h
  MIC: 0.1 µg/mL
[6]; ATCC11, 48 h
  MIC: 0.1 µg/mL
[7]; 24 h
  MIC: 2 µg/mL
[7]; 48 h, read-out: MIC
  MIC: 3 µg/mL
[8]; ATCC9, 24 h, read-out: MIC
  MIC: 5 µg/mL
[8]; ATCC9, 48 h
  MIC: 5 µg/mL
[9]; 24 h
  MIC: 2 µg/mL
[9]; 48 h
  MIC: 2 µg/mL
[10]; 24 h, read-out: MIC
  MIC: 1 µg/mL
[10]; 48 h, read-out: MIC
  MIC: 1 µg/mL
Enterobacter cloacae 681; Enterobacter cloacae, 681, 24 h
  MIC: 10 µg/mL
Enterobacter cloacae 681; Enterobacter cloacae, 681, 48 h
  MIC: 10 µg/mL
[11]; ATCC6, 24 h, read-out: MIC
  MIC: 1 µg/mL
[11]; ATCC6, 48 h
  MIC: 2 µg/mL
[12]; UC1, 24 h
  MIC: 2 µg/mL
[12]; UC1, 48 h
  MIC: 2 µg/mL
[13]; 24 h, read-out: MIC
  MIC: 5 µg/mL
[13]; 48 h
  MIC: 5 µg/mL
[14]; A561, 24 h
  MIC: 0.05 µg/mL
[14]; A561, 48 h
  MIC: 0.05 µg/mL

## CC(=O)OCC1=C(C(=O)O)N2C(=O)C(NC(=O)/C(=N\OCCSC#N)c3csc(N)n3)C2SC1 (stereo not drawn) [Example 7, Syn isomer of 3-acetoxymethyl-7-[2-(2-amino-4-thiazolyl)-2-(2-thiocyanatoethoxyimino)-acetamido]-ceph-3-eme-4-carboxylic acid]
[1]; 24 h
  MIC: 0.2 µg/mL (≈ 0.38 µM)
[1]; 48 h
  MIC: 0.5 µg/mL (≈ 0.95 µM)
[2]; ATCC6, 24 h
  MIC: 1 µg/mL (≈ 1.9 µM)
[2]; ATCC6, 48 h
  MIC: 1 µg/mL (≈ 1.9 µM)
Providencia Du 48; DU48, 24 h
  MIC: 10 µg/mL (≈ 19 µM)
Providencia Du 48; DU48, 48 h
  MIC: 10 µg/mL (≈ 19 µM)
[3]; EXP.52145, 24 h, read-out: MIC
  MIC: 0.5 µg/mL (≈ 0.95 µM)
[3]; EXP.52145, 48 h, read-out: MIC
  MIC: 0.5 µg/mL (≈ 0.95 µM)
[4]; 24 h
  MIC: 1 µg/mL (≈ 1.9 µM)
[4]; 48 h
  MIC: 3 µg/mL (≈ 5.7 µM)
[5]; 24 h
  MIC: 1 µg/mL (≈ 1.9 µM)
[5]; 48 h
  MIC: 2 µg/mL (≈ 3.8 µM)
[6]; ATCC11, 24 h
  MIC: 0.2 µg/mL (≈ 0.38 µM)
[6]; ATCC11, 48 h
  MIC: 0.2 µg/mL (≈ 0.38 µM)
[7]; 24 h
  MIC: 2 µg/mL (≈ 3.8 µM)
[7]; 48 h
  MIC: 3 µg/mL (≈ 5.7 µM)
[8]; ATCC9, 24 h
  MIC: 5 µg/mL (≈ 9.5 µM)
[8]; ATCC9, 48 h
  MIC: 5 µg/mL (≈ 9.5 µM)
[9]; 24 h
  MIC: 2 µg/mL (≈ 3.8 µM)
[9]; 48 h
  MIC: 2 µg/mL (≈ 3.8 µM)
[10]; 24 h
  MIC: 1 µg/mL (≈ 1.9 µM)
[10]; 48 h
  MIC: 1 µg/mL (≈ 1.9 µM)
[11]; ATCC6, 24 h
  MIC: 1 µg/mL (≈ 1.9 µM)
[11]; ATCC6, 48 h
  MIC: 2 µg/mL (≈ 3.8 µM)
[12]; UC1, 24 h
  MIC: 1 µg/mL (≈ 1.9 µM)
[12]; UC1, 48 h
  MIC: 1 µg/mL (≈ 1.9 µM)
[13]; 24 h
  MIC: 5 µg/mL (≈ 9.5 µM)
[13]; 48 h
  MIC: 5 µg/mL (≈ 9.5 µM)
[14]; A561, 24 h
  MIC: 0.02 µg/mL (≈ 0.038 µM)
[14]; A561, 48 h
  MIC: 0.02 µg/mL (≈ 0.038 µM)

## CC(=O)OCC1=C(C(=O)O)N2C(=O)C(NC(=O)/C(=N\OCCSC(=N)NN)c3csc(N)n3)C2SC1 (stereo not drawn) [Example 8, Internal salt of syn isomer of 3-acetoxymethyl-7-[2-(2-amino-4-thiazolyl)-2-(2-iminohydrazinomethylthioethoxyimino)acetamido]-ceph-3-eme-4-carboxylic acid]
[1]; 24 h
  MIC: 0.2 µg/mL
[1]; 48 h
  MIC: 0.2 µg/mL
[2]; ATCC6, 24 h
  MIC: 1 µg/mL
[2]; ATCC6, 48 h
  MIC: 2 µg/mL
[3]; EXP.52145, 24 h
  MIC: 1 µg/mL
[3]; EXP.52145, 48 h
  MIC: 1 µg/mL
[4]; 24 h
  MIC: 1 µg/mL
[4]; 48 h
  MIC: 2 µg/mL
[5]; 24 h
  MIC: 1 µg/mL
[5]; 48 h
  MIC: 2 µg/mL
[6]; ATCC11, 24 h
  MIC: 0.5 µg/mL
[6]; ATCC11, 48 h
  MIC: 0.5 µg/mL
[7]; 24 h
  MIC: 1 µg/mL
[7]; 48 h
  MIC: 2 µg/mL
[8]; ATCC9, 24 h
  MIC: 2 µg/mL
[8]; ATCC9, 48 h
  MIC: 2 µg/mL
[9]; 24 h
  MIC: 1 µg/mL
[9]; 48 h
  MIC: 1 µg/mL
[10]; 24 h
  MIC: 1 µg/mL
[10]; 48 h
  MIC: 1 µg/mL
[11]; ATCC6, 24 h
  MIC: 1 µg/mL
[11]; ATCC6, 48 h
  MIC: 3 µg/mL
[12]; UC1, 24 h
  MIC: 2 µg/mL
[12]; UC1, 48 h
  MIC: 2 µg/mL
[13]; 24 h
  MIC: 5 µg/mL
[13]; 48 h, read-out: MIC
  MIC: 10 µg/mL
[14]; A561, 24 h
  MIC: 0.02 µg/mL
[14]; A561, 48 h
  MIC: 0.05 µg/mL
